Measured values as given in patent US20110190492A1, “DIAGNOSTIC PROBE FOR CONFORMATION DISEASE” (TOHOKU UNIVERSITY, priority 2005, published 2011).

Columns and labels:
[1] = biological target: T1, amyloid β protein (Homo sapiens, UniProt P05067); assay: Staining test on a brain section of an Alzheimer disease patient (amyloid β protein); assay type: binding, human (Alzheimer disease patient); conditions: 100 μM compound in 50% ethanol, 10 minutes, fluorescence microscopy
T1 construct: from tissue; host or cells: paraffin-embedded human brain sections (temporal lobe, hippocampus) of Alzheimer disease patients
Description: (1) Brain specimens at the temporal lobe and the hippocampus of patients to which a definitive diagnosis of Alzheimer disease had been given, and those of normal senile persons were used. The specimens were given by our coworker, Fukushimura Hospital, Longevity Medicine Institute, and we were given their consent of use of the specimens for our study purpose by the bereaved of the patients (Fukushimura Hospital Ethical Review Board Approval No. 20).
(2) The paraffin-embedded brain tissue was cut into slices having a thickness of 6 μm or 8 μm, and extended and dried on a slide. The paraffin brain section was processed for paraffin removal in xylene twice for 10 minutes, 100% ethanol twice for 5 minutes, 90% ethanol for 5 minutes and running water for 10 minutes in that order.
(3) For pretreatment prior to the staining treatment with a compound of the invention, the sections were processed for autofluorescence removal with lipofuscin. First, the paraffin-removed sections were dipped in 0.25% KMnO4 solution for 20 minutes. These were washed with PBS, twice for 2 minutes, then dipped in 0.1% K2S2O5/oxalic acid solution for about 5 seconds, and then further washed with PBS, three times for 2 minutes.
(4) About 150 μl of a 100 μM solution of a compound of the invention dissolved in 50% ethanol was dropwise applied to the section and reacted for 10 minutes. After dipped five times in tap water, the section was entrapped with Fluor Save Reagent (Calbiochem), and analyzed through microscopy with a fluorescence microscope (Nikon, Eclipse 80i). The images were taken with a digital camera (Nikon Dxm 1200F or Photometrics' Cool SNAP ES).

[2] = test system: histidine-requiring Salmonella typhimurium TA100 and TA98 strains; assay: Mutagenicity test (reverse mutation test); assay type: cell-based
Method: In view of their use, it is desirable that the compounds of the invention have no mutagenicity or have little mutagenicity to a level causing no problem. For investigating the gene mutagenesis of the compounds of the invention, herein carried out was a reverse mutation test with histidine-requiring Salmonella typhimurium TA100 and TA98 strains. Two tests were carried out. One is a test for dose determination test; and the other is for mutagenicity.
The test methods and the mutagenicity of the compounds of the invention are mentioned below. In the dose determination test, six doses of 0.160, 0.800, 4.00, 20.0, 100 and 500 μg/plate (common ratio 5) were tried.
As a result of the dose determination test, when the mutagenicity of the test compound was admitted, then the actual test for mutagenicity was carried out, using the dose capable of giving an accurate dose-reaction curve. When no mutagenicity of the test compound was admitted in the dose determination test and when the growth inhibition of the test cells was admitted therein, then the dose to present the growth inhibition was taken as the maximum dose; and when the growth inhibition was not admitted, then a dose of 5000 μg/plate was taken as the maximum dose. With that, the actual test for mutagenicity was carried out on the level of 6 doses (common ratio 2).
First, a test compound was dissolved or suspended in DMSO, then diluted in order to prepare test compound liquids having a varying concentration.
100 μl of a test compound liquid or a negative control (DMSO) solution was put into a sterilized test tube. Then, for the case in the absence of a metabolic activation system (−S9mix), 500 μl of 0.1 mol/liter sodium-phosphate buffer (pH 7.4) was added to it; and for the case in the presence of a metabolic activation system (+S9mix), 500 μl of S9mix was added to it.
Next, 100 μl of the test strain suspension that had been cultivated with shaking at 37° C. for 8 hours was added to it, and preincubated in a shaking thermostat at 37° C. for 20 minutes. After shaken, 2 ml of top agar was added to it, and the contents were mixed.
Next, the mixture was poured onto a minimal glucose agar plate medium (plate) and spread uniformly thereon, then the top agar was solidified, and the plate was transferred into a thermostat and incubated at 37° C. for 48 hours.
Then, the number of the colonies grown through reverse mutation was counted.
For counting it, […]. After area correction and miss-counting correction, the number of the colonies was computed. When the colony analyzer could not be used owing to the deposition of the test compound or the cell growth inhibition, then the number of the colonies was counted with the naked eye.
In case where the number of the colonies through reverse mutation increased two times or more that of the negative control and where the dose dependency or the reproducibility of the increase was admitted, then the tested sample was decided as positive. When the sample was decided as positive, then the relative activity that indicates the relative comparative value of the intensity of the mutagenicity of the test compound was obtained according to the following formula:
Relative Activity={(number of colonies per plate having the concentration)−(number of colonies per negative control plate)}/the value of concentration (mg/plate).

[3] = Acute toxicity test, intravenous administration to mice; assay type: in vivo; conditions: mice observed for 7 days
Method: The compounds of the invention were tested for their acute toxicity through intravenous administration thereof to mice. Four Crj:CD1 male mice formed one test group, and some test groups of those mice were used (the mean body weight of the mice of each group was from 31 to 32 g). A test compound was dissolved in a mixture of 1 N HCl, polyethylene glycol-400 and distilled water, or dissolved in DMSO, and then diluted with distilled water. This was administered to each mouse via its tail vein.

[4] = irrespective of the absence or presence of S9mix

T1 sequence (P05067 672-713 limits assumed): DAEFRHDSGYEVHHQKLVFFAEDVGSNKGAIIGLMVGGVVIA

SMILES | binding to amyloid β protein in the brain section of an Alzheimer disease patient [1] | other results
Cc1ccc2c(c1)C(C)(C)[C@@]1(/C=C/C=C/c3ccc(N(C)C)cc3)NC(=O)CCN21 (stereo in doubt) [THK-585, 10a-[4-(4-dimethylamino-phenyl)-buta-1,3-dienyl]-8,10,10-trimethyl-3,4,10,10a-tetrahydro-1H-pyrimido[1,2-a]indol-2-one] | bound to the amyloid β protein | –
N#C/C(=C\c1ccc(N2CCOCC2)o1)c1nc2ccccc2[nH]1 [THK-203, 2-(1H-benzimidazol-2-yl)-3-(5-morpholin-4-yl-furan-2-yl)-acrylonitrile] | bound to the amyloid β protein | –
CN1CCN(c2ccc(/C=C(\C#N)c3nc4ccccc4[nH]3)o2)CC1 [THK-207, 2-(1H-benzimidazol-2-yl)-3-[5-(4-methyl-piperazin-1-yl)-furan-2-yl]-acrylonitrile] | bound to the amyloid β protein | –
CN(C)c1ccc(/C=C\C=C2C(=O)c3ccccc3C2=O)cc1 [THK-248, 2-[3-(4-dimethylamino-phenyl)-allylidene]-indane-1,3-dione] | bound to the amyloid β protein | –
CN(C)c1ccc(-c2nnc(-c3sc4cc(Cl)ccc4c3Cl)o2)cc1 [THK-262, [4-[5-(3,6-dichloro-benzo[b]thiophen-2-yl)-[1,3,4]oxadiazol-2-yl]-phenyl]-dimethylamine] | bound to the amyloid β protein | –
O=C1Nc2ccc(Cl)cc2/C1=C/c1ccc(N2CCOCC2)cc1 [THK-276, 5-chloro-3-(4-morpholin-4-yl-benzylidene)-1,3-dihydroindol-2-one] | bound to the amyloid β protein | –
C(=C\c1nc2c(ccc3ccccc32)s1)/c1ccc(N2CCOCC2)cc1 [THK-281, 2-[2-(4-morpholin-4-yl-phenyl)-vinyl]naphthol[1,2-d]thiazole] | bound to the amyloid β protein | –
O=C1Nc2ccc(Cl)cc2/C1=C/c1ccc(N2CCOCC2)s1 [THK-308, 5-chloro-3-(5-morpholin-4-yl-thiophen-2-ylmethylene)-1,3-dihydroindol-2-one] | bound to the amyloid β protein | –
CC1(C)c2ccccc2N2CCC(=O)NC21/C=C/c1ccc(N2CCOCC2)cc1 (centres unmarked) [THK-336] | – | relative activity [2, 4]: minus
c1csc(-c2nnc(-c3ccc(N4CCOCC4)cc3)o2)c1 [THK-383, 4-[4-(5-thiophen-2-yl-[1,3,4]oxadiazol-2-yl)-phenyl]-morpholine] | bound to the amyloid β protein | –
COc1ccccc1-c1nnc(-c2ccc(N3CCOCC3)cc2)o1 [THK-385] | bound to the amyloid β protein | –
FCCOc1ccc2nc(/C=C/c3cnc(N4CCOCC4)s3)oc2c1 [THK-525, 6-(2-fluoro-ethoxy)-2-[2-(2-morpholin-4-yl-thiazol-5-yl)-vinyl]-benzoxazole] | bound to the amyloid β protein | Maximum Permissible Dose [3]: ≧10 mg/kg; relative activity [2, 4]: minus
CN(C)c1ccc(/C=C/C23NC(=O)CN2c2ccc(Br)cc2C3(C)C)cc1 (centres unmarked) [THK-556, 7-bromo-9a-[2-(4-dimethylamino-phenyl)-vinyl]-9,9-dimethyl-9,9a-dihydro-1H-imidazo[1,2-a]indol-2-one] | bound to the amyloid β protein | –
CN(C)c1ccc(/C=C/C23NC(=O)CCN2c2ccc(Br)cc2C3(C)C)cc1 (centres unmarked) [THK-558, 8-bromo-10a-[2-(4-dimethylamino-phenyl)-vinyl]-10,10-dimethyl 1-3,4,10,10a-tetrahydro-1H-pyrimido[1,2-a]indol-2-one] | bound to the amyloid β protein | –
CC1CN2c3ccccc3C(C)(C)C2(/C=C/c2ccc(N(C)C)cc2)NC1=O (centres unmarked) [THK-559, 10a-[2-(4-dimethylamino-phenyl)-vinyl]-3,10,10-trimethyl-3,4,10,10a-tetrahydro-1H-pyrimido[1,2-a]indol-2-one] | bound to the amyloid β protein | –
CN(C)c1ccc(/C=C/C23NC(=O)CN2c2ccccc2C3(C)C)cc1 (centres unmarked) [THK-562] | bound to the amyloid β protein | –
CCN(CC)c1ccc(/C=C/C23NC(=O)CN2c2ccccc2C3(C)C)cc1 (centres unmarked) [THK-563] | bound to the amyloid β protein | –
Cc1ccc2c(c1)C(C)(C)C1(/C=C/C=C/c3ccc(N(C)C)cc3)NC(=O)CCN21 (centres unmarked) [THK-565, 10a-[4-(4-dimethylamino-phenyl)-buta-1,3-dienyl]-8,10,10-trimethyl-3,4,10,10a-tetrahydro-1H-pyrimido[1,2-a]indol-2-one] | bound to the amyloid β protein | –
N#CC(C#N)=Cc1ncc(/C=C/c2nc3ccc(OCC(CO)CF)cc3o2)s1 (centres unmarked) [THK-683] | – | relative activity [2, 4]: minus
CN1CCN(c2ncc(/C=C/c3nc4ccc(OC(CO)CF)cc4o3)s2)CC1 (centres unmarked) [THK-707, (E)-6-[(1-fluoromethyl-2-hydroxy)ethoxy]-2-[2-[2-(4-methylpiperazin-1-yl)thiazol-5-yl]ethenyl]benzoxazole] | – | Maximum Permissible Dose [3]: ≧10 mg/kg; relative activity ([2]; in the presence of S9mix): weak
OCC(CF)Oc1ccc2nc(/C=C/c3cnc(N4CCCCC4)s3)oc2c1 (centres unmarked) [THK-713] | – | Maximum Permissible Dose [3]: ≧10 mg/kg; relative activity [2, 4]: minus
OCC(CF)Oc1ccc2nc(/C=C/c3cnc(N4CCCOC4)s3)oc2c1 (centres unmarked) [THK-757, (E)-6-[(1-fluoromethyl-2-hydroxy)ethoxy]-2-[2-[2-([1,3]oxadinan-3-yl)-thiazol-5-yl]ethenyl]benzoxazole] | – | Maximum Permissible Dose [3]: ≧10 mg/kg
OCC(CF)Oc1ccc2nc(/C=C/c3cnc(N4CCCCCC4)s3)oc2c1 (centres unmarked) [THK-765, (E)-6-[(1-fluoromethyl-2-hydroxy)ethoxy]-2-[2-[2-(homopiperidin-1-yl)thiazol-5-yl]ethenyl]benzoxazole] | – | Maximum Permissible Dose [3]: ≧10 mg/kg
OCC(CF)Oc1ccc2nc(/C=C/c3cnc(N4CCCOCC4)s3)oc2c1 (centres unmarked) [THK-766, (E)-6-[(1-fluoromethyl-2-hydroxy)ethoxy]-2-[2-(2-homomorpholinothiazol-5-yl)ethenyl]benzoxazole] | The white space arrow indicates amyloid β protein | Maximum Permissible Dose [3]: ≧10 mg/kg
